Like-named read-outs stand apart in the source and are kept apart here.
How the values were obtained:
MCT1 [1] = biological target: T1, MCT1 (Rattus norvegicus, UniProt P53987); assay type: cell-based; details: read-out: % inhibition (irreversible) at 0.2 mM
T1 sequence (P53987 1-494): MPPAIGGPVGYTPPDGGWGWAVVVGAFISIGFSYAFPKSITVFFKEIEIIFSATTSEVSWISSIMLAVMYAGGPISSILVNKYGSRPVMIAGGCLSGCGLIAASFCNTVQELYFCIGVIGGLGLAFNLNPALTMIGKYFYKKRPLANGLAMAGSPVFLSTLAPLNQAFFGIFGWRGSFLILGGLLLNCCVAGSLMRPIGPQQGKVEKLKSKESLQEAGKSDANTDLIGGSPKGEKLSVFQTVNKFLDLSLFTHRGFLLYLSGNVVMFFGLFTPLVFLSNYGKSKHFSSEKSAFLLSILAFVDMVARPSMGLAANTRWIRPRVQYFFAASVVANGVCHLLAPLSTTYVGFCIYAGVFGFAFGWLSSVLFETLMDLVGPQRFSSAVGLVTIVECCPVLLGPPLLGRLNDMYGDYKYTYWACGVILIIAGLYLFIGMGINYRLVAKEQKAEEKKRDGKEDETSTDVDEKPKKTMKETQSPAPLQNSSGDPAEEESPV

MCT1 [2] = biological target: T1, MCT1; assay: inhibition of L-[…]lactate uptake in Xenopus oocytes, DIDS present in assay; assay type: cell-based; details: read-out: % inhibition (reversible) at 0.2 mM

inhibition at 200 µM (MCT1 [1]): ~60% | inhibition at 200 µM (MCT1 [2]): ~60%
Structure (SMILES): O=S(=O)(O)c1cc(N=C=S)ccc1/C=C/c1ccc(N=C=S)cc1S(=O)(=O)O [DIDS]

— paper PMC2740427 (The Journal of Biological Chemistry, 2009)
